From PubChem BioAssay (NCI) come the findings set out here.

Several values for one entry are separate records, joined by “and”; a condition that tells them apart may be missing. Equal values may be shown once.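 Test compounds were applied to cells in 96-well plates for 48 hours at 5 doses. GI50: concentration for 50% inhibition of growth. TGI is the concentration that stops growth completely.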 Where only a bound is given, the exact number is not on record here.

Test systems include ACHN renal; DU-145 prostate; HCT-116 colon; HOP-62 NSCLC; HOP-92 NSCLC; IGROV1 ovarian; SK-MEL-2 melanoma; SR leukemia; NCI-H226 lung; HCC-2998 colon.
Assay in all cases: inhibition of tumour cell growth, NCI panel, 48 h

Consider `O=C(Nc1sc2c(c1C(=O)O)CCCC2)c1ccco1`, for which the GI50 with ACHN renal was 14.1 µM; in the test with DU-145 prostate, greater than 50 µM; in the test on HCT-116 colon, 31 µM; in the test with HOP-62 NSCLC, greater than 50 µM; in the test with HOP-92 NSCLC, greater than 50 µM; in the test on IGROV1 ovarian it was greater than 50 µM. Further, the results for the GI50 with SK-MEL-2 melanoma and in the test with SR leukemia were greater than 50 µM and 46.2 µM, respectively. Moreover, the TGI with ACHN renal, in the test on DU-145 prostate, with HCT-116 colon, in the test with HOP-62 NSCLC, in the test on HOP-92 NSCLC and in the test with IGROV1 ovarian was greater than 50 µM throughout. Besides, the TGI with SK-MEL-2 melanoma and in the test with SR leukemia was greater than 50 µM each time.

Regarding `COc1cc(O)ccc1C(=S)SC`, the TGI in the test on ACHN renal, in the test on DU-145 prostate, in the test with HCT-116 colon, with HOP-62 NSCLC, with HOP-92 NSCLC and with IGROV1 ovarian was greater than 100 µM in each case. For the same molecule, the TGI with NCI-H226 lung was 76.9 µM; in the test on SK-MEL-2 melanoma, greater than 100 µM; in the test with SR leukemia, greater than 100 µM.

Turning to `COC(=O)C(C(=O)C(=O)Nc1c(C)cccc1C(C)(C)C)c1nc2ccc(Cl)cc2[nH]c1=O` (stereo unspecified), the TGI in the test on ACHN renal, in the test on HCC-2998 colon, in the test with HCT-116 colon, in the test on HOP-62 NSCLC, in the test with HOP-92 NSCLC and in the test on IGROV1 ovarian was greater than 100 µM throughout. In addition, the TGI in the test with NCI-H226 lung, in the test on SK-MEL-2 melanoma and with SR leukemia was greater than 100 µM each time.

As for `Cc1n[nH]c2ccccc2c1=O`, the TGI with ACHN renal, with DU-145 prostate, with HCT-116 colon, in the test on HOP-62 NSCLC, in the test with HOP-92 NSCLC and in the test with IGROV1 ovarian was greater than 100 µM in each case. Moreover, the TGI in the test with NCI-H226 lung, in the test on SK-MEL-2 melanoma and in the test on SR leukemia was greater than 100 µM in each case.

Regarding `O=c1c(Cc2ccccc2)c(O)cc2n1CCC2`, the TGI in the test with ACHN renal, with HCC-2998 colon, with HCT-116 colon, with HOP-62 NSCLC, with HOP-92 NSCLC and in the test with IGROV1 ovarian was greater than 100 µM in each case. The TGI with NCI-H226 lung and with SR leukemia was greater than 100 µM throughout.

For the molecule `Cc1c(C)c([N+](=O)[O-])c2c(c1N)C(=O)c1ccccc1C2=O`, the TGI in the test with ACHN renal, in the test on HCC-2998 colon, in the test with HCT-116 colon, with HOP-62 NSCLC, in the test with HOP-92 NSCLC and in the test with IGROV1 ovarian was greater than 100 µM each time. The TGI in the test on NCI-H226 lung, in the test on SK-MEL-2 melanoma and in the test on SR leukemia was greater than 100 µM each time.

As to `O=c1c2cccnc2ncn1CCCN1CCCCC1`, the TGI in the test on ACHN renal, in the test with HCT-116 colon, with HOP-62 NSCLC, with HOP-92 NSCLC, in the test on IGROV1 ovarian and in the test with NCI-H226 lung was greater than 100 µM throughout. Moreover, the TGI in the test on SK-MEL-2 melanoma and in the test with SR leukemia was greater than 100 µM throughout.

Take `OCC(O)C(O)C(O)C(/C=N\Nc1ncnc2c(Br)cc(Br)cc12)=N/Nc1ncnc2c(Br)cc(Br)cc12` (stereo unspecified): the TGI with ACHN renal was 33 µM and > 100 µM; in the test on DU-145 prostate, 14.7 µM and > 100 µM; in the test with HCT-116 colon it was greater than 100 µM; in the test with IGROV1 ovarian, 10.1 µM and > 100 µM; in the test with NCI-H226 lung, 9.42 µM; in the test with SK-MEL-2 melanoma it was 17.6 µM and > 100 µM. Moreover, the TGI in the test on SR leukemia was 17.3 µM and > 100 µM. Besides, the GI50 with HCT-116 colon was 19.1 µM and 3.44 µM; with HOP-62 NSCLC it was 2.05 µM and 9.09 µM.

As to `CCOc1c(Br)cc(Br)cc1C=C(C#N)C#N`, the TGI with ACHN renal, in the test with HCC-2998 colon, in the test with HCT-116 colon, in the test with HOP-62 NSCLC, in the test on HOP-92 NSCLC and in the test on IGROV1 ovarian was greater than 10 µM in each case. Further, the TGI in the test on NCI-H226 lung, in the test with SK-MEL-2 melanoma and in the test with SR leukemia was greater than 10 µM in each case.

In the case of `O=C(c1ccccc1)C1N=NN(Cc2ccccc2[N+](=O)[O-])C1C(=O)c1ccccc1` (stereo unspecified), the TGI in the test on ACHN renal, in the test on HCC-2998 colon, in the test with HCT-116 colon, in the test on HOP-62 NSCLC, in the test with HOP-92 NSCLC and in the test on IGROV1 ovarian was greater than 100 µM in each case. For the same molecule, the TGI in the test on NCI-H226 lung, in the test on SK-MEL-2 melanoma and in the test on SR leukemia was greater than 100 µM in each case.

Turning to `O=C1NC(O)n2c(=O)[nH]c(=O)n21` (stereo unspecified), the TGI with ACHN renal, in the test with HCC-2998 colon, with HCT-116 colon, in the test on HOP-62 NSCLC, in the test on HOP-92 NSCLC and with IGROV1 ovarian was greater than 100 µM throughout. Moreover, the TGI with NCI-H226 lung, with SK-MEL-2 melanoma and in the test on SR leukemia was greater than 100 µM in each case.

Take `Cc1cccc(N2C(=O)/C(=C/C(Cl)=C/c3ccc([N+](=O)[O-])cc3)SC2=S)c1C`: the GI50 was 1.43 µM in the test on ACHN renal; 3.98 µM with DU-145 prostate; 1.72 µM in the test with HCC-2998 colon; 1.33 µM in the test on HCT-116 colon; 2.69 µM in the test on HOP-62 NSCLC; 3.85 µM with SK-MEL-2 melanoma. Besides, in the test on SR leukemia, the GI50 is 0.404 µM. Further, the TGI is 2.75 µM in the test with ACHN renal; greater than 100 µM with DU-145 prostate; 3.54 µM in the test on HCC-2998 colon; 3.08 µM with HCT-116 colon; 9.02 µM with HOP-62 NSCLC; greater than 100 µM with SK-MEL-2 melanoma. Further, the TGI with SR leukemia was greater than 100 µM.

For `OCc1ccc(N(Cc2ccc(F)cc2)Cc2ccc(F)cc2)cc1Cl`, the GI50 with ACHN renal was 10.9 µM; in the test with HCC-2998 colon, 14.3 µM; in the test on HCT-116 colon, 2.87 µM; in the test with HOP-62 NSCLC, 10.9 µM; in the test on HOP-92 NSCLC, 2.21 µM; in the test on IGROV1 ovarian, 2.08 µM. Further, the figures for the GI50 in the test on NCI-H226 lung, in the test with SK-MEL-2 melanoma and in the test on SR leukemia were 0.466 µM, 10.6 µM and 5.51 µM, respectively. For the same molecule, the TGI was 23 µM in the test on ACHN renal; 30.8 µM in the test with HCC-2998 colon; 10.8 µM in the test on HCT-116 colon; 23.2 µM in the test with HOP-62 NSCLC; 10.2 µM in the test with HOP-92 NSCLC; 8.07 µM in the test on IGROV1 ovarian. The TGI with NCI-H226 lung came to 2.03 µM; in the test on SK-MEL-2 melanoma, 26.9 µM; with SR leukemia it was 24.4 µM.
